What was measured:
DC2.4 cells = type: cell-based
[1] = biological target: H-2K^b (K^b heavy chain with β2-microglobulin), recombinant, refolded (mouse | not stated); experiment: circular dichroism thermal denaturation
[2] = Immunogenicity in preliminary experiments; conditions: data not shown
[3] = test system: brain-derived CD8 T cells; experiment: IFN-γ intracellular cytokine staining of brain-derived leukocytes; type: cell-based, C57BL/6 (B6) mice; conditions: brain-derived cells of rJ-infected mice, day 7 p.i.
[4] = test system: brain-derived CD8 T cells; conditions: ref [14]; cited from earlier work

In the case of CSLWNGPHL [Epitope S510], the “detection of peptide eluted from MHC complexes” value (DC2.4 cells) is reported as “neither peptide was detectable”.
For “Q600F peptide (heteroclitic S598 analogue), Aba-modified (from UniProt P22432 598-605)”, the Tm of the K^b/peptide complex [1] was 62.7 °C.
For RCEIFANI [Epitope Q600E], the immunogenicity [2] was “not immunogenic”.
In the case of RCYIFANI [Epitope Q600Y], the “fraction of S598-primed CD8 T cells recognizing the variant peptide” value [3] is given as “only a small fraction” and the “fraction of responding T cells that recognized only the variant epitope” value [4] is given as ~ 35%.
For “S598 peptide (native epitope), Aba-modified”, the Tm of the K^b/peptide complex [1] was 56.2 °C.
For TSYKFESV [Epitope B8_20-27], the “level of VacV-derived control peptide” value (DC2.4 cells) was “equivalently high levels”.

Reference: PMC4052115 (Journal of immunology (Baltimore, Md. : 1950), 2014)
